The source of these data is patent US20220389061A1, “IMMUNOMODULATORS” (priority 2019, published 2022).

For this assay, the target named is T1, PD-1/PD-L1 (Homo sapiens, UniProt Q9NZQ7).
T1 construct: TVMV protease site linker (C); made in house; host or cells: HEK293T cells
Nature of the assay: PD-1/PD-L1 Homogenous Time-Resolved Fluorescence (HTRF) binding assay. A digest of the protocol:
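HTRF read-out using europium cryptate anti-Ig (1 nM) and APC anti-His (20 nM) on extracellular-domain fusion proteins in dPBS/0.1% BSA/0.05% Tween-20. Inhibitor first incubated 15 min with 10 nM PD-L1-His, followed by 20 nM PD-1-Ig for another 15 min.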

[1] abbreviates: PD-L1-His 10 nM pre-incubated with inhibitor, PD-1-Ig 20 nM, read-out: HTRF IC50.

Where two headings read alike, the source gives them in different places. Starred links: 1 amine or outer side, 2 acyl side, 3 side chain; linkers in the order of their positions; H or OH if unused. Positions of bridges follow the written chain, without caps; N, C: chain ends. Non-standard residues stand in square brackets, D forms with d. Residues, ends and D or L forms follow the SMILES beside them. Groups on a side chain read outwards from the residue. *: point of attachment. Trp(1-CH2COOH) = N[C@@H](Cc1cn(CC(=O)O)c2ccccc12)C(=O)O; X67 = S=C(Nc1c(Cl)c(Cl)cc(Cl)c1Cl)*; Hyp = O=C(O)[C@@H]1C[C@@H](O)CN1; X10 = S=C(Nc1ccc(N2CCOCC2)cc1)*; X27 = Cc1cc([N+](=O)[O-])ccc1N*; X11 = S=C(Nc1ccccc1-c1ccccc1)*; X43 = S=C(Nc1ccccc1Oc1ccccc1)*; pNA = O=[N+]([O-])c1ccc(N*)cc1; NMeNle = CCCC[C@H](NC)C(=O)O; X2 = c1ccc(-c2ccccc2N*)cc1; NMeA = CN[C@@H](C)C(=O)O; Dab = NCC[C@H](N)C(=O)O; Dap = NC[C@H](N)C(=O)O; CO = O=C([*:1])[*:2]

T1 sequence (Q9NZQ7 18-239): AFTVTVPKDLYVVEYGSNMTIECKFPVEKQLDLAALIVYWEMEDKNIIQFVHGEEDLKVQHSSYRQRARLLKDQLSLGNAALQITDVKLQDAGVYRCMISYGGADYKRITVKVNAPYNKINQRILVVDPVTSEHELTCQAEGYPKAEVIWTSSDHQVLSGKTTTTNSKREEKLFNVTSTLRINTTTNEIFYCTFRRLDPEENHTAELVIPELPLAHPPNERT

Turning to `CCCC[C@H]1C(=O)N(C)[C@@H](CCCC)C(=O)N[C@@H](CC(C)C)C(=O)N[C@H](C(=O)NCC(N)=O)CSCC(=O)N[C@@H](Cc2ccc(O)cc2)C(=O)N(C)[C@@H](C)C(=O)N[C@@H](CC(N)=O)C(=O)N2CCC[C@H]2C(=O)N[C@@H](CNC(=O)Nc2ccccc2-c2ccccc2)C(=O)N[C@@H](CC(C)C)C(=O)N2C[C@H](O)C[C@H]2C(=O)N[C@@H](Cc2c[nH]c3ccccc23)C(=O)N[C@@H](CCNC(=O)Nc2ccccc2-c2ccccc2)C(=O)N[C@@H](Cc2cn(CC(=O)O)c3ccccc23)C(=O)N1C` [Example 1126] ({CH2CO}-Y[NMeA]NP[Dap]([CO-X2])L[Hyp]W[Dab]([CO-X2])[Trp(1-CH2COOH)][NMeNle][NMeNle]LCG-NH2; thioether N-14), the half-maximal inhibitory concentration (IC50) (read-out: HTRF IC50, PD-L1-His 10 nM pre-incubated with inhibitor, PD-1-Ig 20 nM) worked out at 1 nM.

For the molecule `CCCC[C@H]1C(=O)N(C)[C@@H](CCCC)C(=O)N[C@@H](CC(C)C)C(=O)N[C@H](C(=O)NCC(N)=O)CSCC(=O)N[C@@H](Cc2ccc(O)cc2)C(=O)N(C)[C@@H](C)C(=O)N[C@@H](CC(N)=O)C(=O)N2CCC[C@H]2C(=O)N[C@@H](CNC(=S)Nc2ccc(N3CCOCC3)cc2)C(=O)N[C@@H](CC(C)C)C(=O)N2C[C@H](O)C[C@H]2C(=O)N[C@@H](Cc2c[nH]c3ccccc23)C(=O)N[C@@H](CCNC(=S)Nc2ccc(N3CCOCC3)cc2)C(=O)N[C@@H](Cc2cn(CC(=O)O)c3ccccc23)C(=O)N1C` [Example 1127] ({CH2CO}-Y[NMeA]NP[Dap](X10)L[Hyp]W[Dab](X10)[Trp(1-CH2COOH)][NMeNle][NMeNle]LCG-NH2; thioether N-14), the IC50 under setting [1] was 3 nM.

Take `CCCC[C@H]1C(=O)N(C)[C@@H](CCCC)C(=O)N[C@@H](CC(C)C)C(=O)N[C@H](C(=O)NCC(N)=O)CSCC(=O)N[C@@H](Cc2ccc(O)cc2)C(=O)N(C)[C@@H](C)C(=O)N[C@@H](CC(N)=O)C(=O)N2CCC[C@H]2C(=O)N[C@@H](CNC(=S)Nc2ccccc2-c2ccccc2)C(=O)N[C@@H](CC(C)C)C(=O)N2C[C@H](O)C[C@H]2C(=O)N[C@@H](Cc2c[nH]c3ccccc23)C(=O)N[C@@H](CCNC(=S)Nc2ccccc2-c2ccccc2)C(=O)N[C@@H](Cc2cn(CC(=O)O)c3ccccc23)C(=O)N1C` [Example 1128] ({CH2CO}-Y[NMeA]NP[Dap](X11)L[Hyp]W[Dab](X11)[Trp(1-CH2COOH)][NMeNle][NMeNle]LCG-NH2; thioether N-14): the half-maximal inhibitory concentration (IC50) under setting [1] amounted to 0.6 nM.

For `CCCC[C@H]1C(=O)N(C)[C@@H](CCCC)C(=O)N[C@@H](CC(C)C)C(=O)N[C@H](C(=O)NCC(N)=O)CSCC(=O)N[C@@H](Cc2ccc(O)cc2)C(=O)N(C)[C@@H](C)C(=O)N[C@@H](CC(N)=O)C(=O)N2CCC[C@H]2C(=O)N[C@@H](CNC(=S)Nc2ccccc2Oc2ccccc2)C(=O)N[C@@H](CC(C)C)C(=O)N2C[C@H](O)C[C@H]2C(=O)N[C@@H](Cc2c[nH]c3ccccc23)C(=O)N[C@@H](CCNC(=S)Nc2ccccc2Oc2ccccc2)C(=O)N[C@@H](Cc2cn(CC(=O)O)c3ccccc23)C(=O)N1C` [Example 1129] ({CH2CO}-Y[NMeA]NP[Dap](X43)L[Hyp]W[Dab](X43)[Trp(1-CH2COOH)][NMeNle][NMeNle]LCG-NH2; thioether N-14), the IC50 under setting [1] was found to be 9.4 nM.

`CCCC[C@H]1C(=O)N(C)[C@@H](CCCC)C(=O)N[C@@H](CC(C)C)C(=O)N[C@H](C(=O)NCC(N)=O)CSCC(=O)N[C@@H](Cc2ccc(O)cc2)C(=O)N(C)[C@@H](C)C(=O)N[C@@H](CC(N)=O)C(=O)N2CCC[C@H]2C(=O)N[C@@H](CNC(=O)Nc2ccc([N+](=O)[O-])cc2)C(=O)N[C@@H](CC(C)C)C(=O)N2C[C@H](O)C[C@H]2C(=O)N[C@@H](Cc2c[nH]c3ccccc23)C(=O)N[C@@H](CCNC(=O)Nc2ccc([N+](=O)[O-])cc2)C(=O)N[C@@H](Cc2cn(CC(=O)O)c3ccccc23)C(=O)N1C` [Example 1130] ({CH2CO}-Y[NMeA]NP[Dap]([CO-pNA])L[Hyp]W[Dab]([CO-pNA])[Trp(1-CH2COOH)][NMeNle][NMeNle]LCG-NH2; thioether N-14) displayed an IC50 of 2 nM.

`CCCC[C@H]1C(=O)N(C)[C@@H](CCCC)C(=O)N[C@@H](CC(C)C)C(=O)N[C@H](C(=O)NCC(N)=O)CSCC(=O)N[C@@H](Cc2ccc(O)cc2)C(=O)N(C)[C@@H](C)C(=O)N[C@@H](CC(N)=O)C(=O)N2CCC[C@H]2C(=O)N[C@@H](CN)C(=O)N[C@@H](CC(C)C)C(=O)N2C[C@H](O)C[C@H]2C(=O)N[C@@H](Cc2c[nH]c3ccccc23)C(=O)N[C@@H](CCNC(=O)Nc2ccc([N+](=O)[O-])cc2)C(=O)N[C@@H](Cc2cn(CC(=O)O)c3ccccc23)C(=O)N1C` [Example 1131] ({CH2CO}-Y[NMeA]NP[Dap]L[Hyp]W[Dab]([CO-pNA])[Trp(1-CH2COOH)][NMeNle][NMeNle]LCG-NH2; thioether N-14): the IC50 came out at 7.3 nM.

The molecule `CCCC[C@H]1C(=O)N(C)[C@@H](CCCC)C(=O)N[C@@H](CC(C)C)C(=O)N[C@H](C(=O)NCC(N)=O)CSCC(=O)N[C@@H](Cc2ccc(O)cc2)C(=O)N(C)[C@@H](C)C(=O)N[C@@H](CC(N)=O)C(=O)N2CCC[C@H]2C(=O)N[C@@H](CNC(=O)Nc2ccc([N+](=O)[O-])cc2)C(=O)N[C@@H](CC(C)C)C(=O)N2C[C@H](O)C[C@H]2C(=O)N[C@@H](Cc2c[nH]c3ccccc23)C(=O)N[C@@H](CCN)C(=O)N[C@@H](Cc2cn(CC(=O)O)c3ccccc23)C(=O)N1C` [Example 1132] ({CH2CO}-Y[NMeA]NP[Dap]([CO-pNA])L[Hyp]W[Dab][Trp(1-CH2COOH)][NMeNle][NMeNle]LCG-NH2; thioether N-14) displayed an IC50 of 3.7 nM.

Take `CCCC[C@H]1C(=O)N(C)[C@@H](CCCC)C(=O)N[C@@H](CC(C)C)C(=O)N[C@H](C(=O)NCC(N)=O)CSCC(=O)N[C@@H](Cc2ccc(O)cc2)C(=O)N(C)[C@@H](C)C(=O)N[C@@H](CC(N)=O)C(=O)N2CCC[C@H]2C(=O)N[C@@H](CNC(=O)Nc2ccc([N+](=O)[O-])cc2C)C(=O)N[C@@H](CC(C)C)C(=O)N2C[C@H](O)C[C@H]2C(=O)N[C@@H](Cc2c[nH]c3ccccc23)C(=O)N[C@@H](CCN)C(=O)N[C@@H](Cc2cn(CC(=O)O)c3ccccc23)C(=O)N1C` [Example 1133] ({CH2CO}-Y[NMeA]NP[Dap]([CO-X27])L[Hyp]W[Dab][Trp(1-CH2COOH)][NMeNle][NMeNle]LCG-NH2; thioether N-14): the IC50 under setting [1] is 8.4 nM.

In the case of `CCCC[C@H]1C(=O)N(C)[C@@H](CCCC)C(=O)N[C@@H](CC(C)C)C(=O)N[C@H](C(=O)NCC(N)=O)CSCC(=O)N[C@@H](Cc2ccc(O)cc2)C(=O)N(C)[C@@H](C)C(=O)N[C@@H](CC(N)=O)C(=O)N2CCC[C@H]2C(=O)N[C@@H](CNC(=S)Nc2c(Cl)c(Cl)cc(Cl)c2Cl)C(=O)N[C@@H](CC(C)C)C(=O)N2C[C@H](O)C[C@H]2C(=O)N[C@@H](Cc2c[nH]c3ccccc23)C(=O)N[C@@H](CCNC(=S)Nc2c(Cl)c(Cl)cc(Cl)c2Cl)C(=O)N[C@@H](Cc2cn(CC(=O)O)c3ccccc23)C(=O)N1C` [Example 1134] ({CH2CO}-Y[NMeA]NP[Dap](X67)L[Hyp]W[Dab](X67)[Trp(1-CH2COOH)][NMeNle][NMeNle]LCG-NH2; thioether N-14), the half-inhibitory concentration (IC50) under setting [1] stood at 2.4 nM.
